Results: US12472166B2, “Inhibition of mycobacterial type VII secretion” (priority 2019, dated 2025)
“Also recorded” adds a separate entry of the source.

Experiments:
Assay type in all cases: cell-based
[1] = test system: ESX-5 dependent secretion
[2] = test system: PE_PGRS and EsxN (ESX-5 dependent secretion)
[3] = test system: Apa (SEC dependent secretion)

Row | SMILES | effect on ESX-5 secretion activity (lipase DGGR vs viability REMA) [1] | other results
1 | CO[C@H]1/C=C/O[C@@]2(C)Oc3c(C)c(O)c4c(O)c(c(/C=N/N5CCN(C)CC5)c(O)c4c3C2=O)NC(=O)/C(C)=C\C=C\[C@H](C)[C@H](O)[C@@H](C)[C@@H](O)[C@@H](C)[C@H](OC(C)=O)[C@@H]1C [Rifampin, reference compound] | – | lipase activity (DGGR) readout, control condition [1]: negative
2 | COc1ccc(-c2nsc(SCC(=O)NC3CCCC3)n2)cc1 [Compound I-12] | – | effect on secretion of the reporter lipase LipY when mspA was over-produced [1]: showed no changes; lipase secretion compared to DMSO treated control [1]: significant reduction of lipase secretion; secreted PE_PGRS proteins compared to DMSO control [2]: most drastic decrease; also recorded: secretion inhibition similar to the non-functional ESX-5 mutant; secretion of Apa [3]: did not affect secretion
3 | Cc1cccc(-c2nsc(SCC(=O)NCC3CCCO3)n2)c1 (stereo not shown) [Compound I-39, reference compound] | do not affect the activity of ESX-5 | –
4 | O=C(CSc1nc(-c2ccccc2)ns1)NC1CCCC1 [Compound I-5] | significant reduction in lipase activity (substrate DGGR) before the bacterial viability (REMA) is affected | –
5 | COc1ccc(-c2nsc(SCC(=O)NCC3CCCC3)n2)cc1 [Compound I-38, reference compound] | do not affect the activity of ESX-5 | –
6 | CCOC(=O)CNC(=O)CSc1nc(-c2ccccc2)ns1 [Compound I-41, reference compound] | affect ESX-5 secretion activity | –
7 | CCOC(=O)CNC(=O)CSc1nc(-c2cccc(C)c2)ns1 [Compound I-40, reference compound] | affect ESX-5 secretion activity | –
